The source of these data is patent US12527762B2 (priority 2021, dated 2026).

Broadly, the IC50 is the midpoint of a concentration-inhibition curve.

Data set [1] can be described thus: in vitro. The settings on record: African green monkey.
Data set [2] has as its system SARS-CoV-2. Briefly: microbe, parasite or virus in culture. Format: cell-based.
Data set [3] deals with MDA-MB-231 triple negative breast cancer cell line. Nature of the data set: Luminescent cell viability assay (CellTiter glo), subtype-specific breast cancer cell lines. As to conditions: for IC50: MDA-MB-231, triple negative breast cancer cell line; for IC50 fold lower than Cisplatin: MDA-MB-231 cells. In kind it is cell-based. In general terms: Cellular ATP, detected with luciferase, serves as a proxy for viable cell number.

Data set [4] concerns HCC1937 triple negative breast cancer cell line. Described as above. In kind it is cell-based.
In data set [5] the test system is MDA-MB-231 breast cancer cell line. As to conditions: value from literature, read-out: IC50 (positive control); cited from earlier work.
In data set [6] the test system is MCF7/PR Paclitaxel resistant MCF7 cell line. Briefly: Luminescent cell viability assay (CellTiter glo), subtype-specific breast cancer cell lines. In kind it is cell-based.
Data set [7] relates to MDA-MB-453 HER2-positive breast cancer cell line. The description is as above. In kind it is cell-based.
In data set [8] the test system is ZR-75-1 hormone-positive breast cancer cell line. Described as above. In kind it is cell-based. As to conditions: for IC50: ZR-75-1, hormone-positive breast cancer cell line; for IC50 fold lower than Tamoxifen: ZR-75-1 cells.
Data set [9] has as its system HCC1419 HER2-positive breast cancer cell line. The data set is described as above. In kind it is cell-based. As to conditions: for IC50: HCC1419, HER2-positive breast cancer cell line; for IC50 fold lower than Herceptin: HCC1419 cells.
Data set [10] relates to MCF-7 breast cancer cell line. The settings on record: value from literature, read-out: IC50 (positive control); cited from earlier work.
Data set [11] concerns Vero cells.
For data set [12], the system named is PANC-1 pancreatic cancer cell line. Briefly: Inhibition of cancer cell proliferation, CCK-8 assay. Format: cell-based.
Data set [13] concerns A-549 non-small cell lung cancer cell line. Described as above. In kind it is cell-based.
Data set [14] concerns MIAPACA-2 pancreatic cancer cell line. Described as above. Format: cell-based.
Data set [15] relates to H-1299 non-small cell lung cancer cell line. The description is as above. In kind it is cell-based.
For data set [16], the system named is Huh-7 liver cancer cell line. The description is as above. In kind it is cell-based.
The subject of data set [17] is MDA-MB-231 breast cancer cell line. The description is as above. In kind it is cell-based.
Data set [18] concerns Hep-3B liver cancer cell line. Described as above. In kind it is cell-based.
In data set [19] the test system is MCF-7 breast cancer cell line. The description is as above. In kind it is cell-based.
Data set [20] is classed as in vitro ADME. As to conditions: PAMPA. How it is done: The permeability of an artificial membrane (barrier membrane from PermeaPad, 25 mm) to niclosamide of the cocrystal of Example 17 of the present invention was evaluated using the side-bi-side cell system, and compared with that of the niclosamide single material. 5 ml of an FeSSIF solution (37° C.) at pH 6.5 added with 3% (w/w) Kolliphor ELP was taken and contained in a donor cell, and […] of each sample was weighed and administered to the donor cell. 5 ml of a PBS solution of pH 7.4 added with 20% (w/w) HP-β-CD was added to the acceptor cell, the test was started, and 200 μl of the solution was taken 5 times from the acceptor cell every predetermined time and used as the test solution. Then, the acceptor cell was filled with the PBS solution of pH 7.4 added with 1 ml of 20% (w/w) HP-p-CD, and the total volume was maintained at 5 ml.

A short description of data set [21]: Solubility of niclosamide in pH 7 buffer solution (HPLC). In kind it is physicochemical. How it is done:
A pH 7 solution prepared by mixing 0.1 N potassium phosphate and 0.1 N sodium hydroxide was used as the pH 7 buffer solution. […] After 1 hour of stirring, 5 ml of a supernatant was filtered with a 0.45 μm PVDF filter, and then the amount of dissolved niclosamide was evaluated using the filtered solution as a sample.

A short description of data set [22]: Artificial membrane permeability of camostat, side-bi-side cell system (GIT-0-Lipid on PVDF membrane). In kind it is in vitro ADME. Here is the method: As an artificial membrane, 200 μl of a GIT-0-Lipid solution was used by dropping on the center of a 25 mm hydrophobic PVDF membrane. 5 ml of a 37° C. pH 5.0 FeSSIF solution was taken and contained in a donor cell, and 20 mg of the sample was weighed and administered to the donor cell. The test was started after adding 5 ml of an ethyl alcohol. pH 7.4 PBS buffer (1:9, v/v) solution to an acceptor cell, and 200 μl of the solution was taken five times from the acceptor cell every predetermined time and used as a test solution. Then, the acceptor cell was filled with 1 ml of the ethyl alcohol: pH 7.4 PBS buffer (1:9, v/v) solution to maintain a total volume of 5 ml.

In data set [23] the test system is MIAPACA-2 pancreatic cancer cell line. As to conditions: value from literature, read-out: IC50 (positive control); cited from earlier work.
Data set [24] deals with PANC-1 pancreatic cancer cell line. The settings on record: value from literature, read-out: IC50 (positive control); cited from earlier work.
Data set [25] deals with Hep-3B liver cancer cell line. The settings on record: value from literature, read-out: IC50 (positive control); cited from earlier work.
Data set [26] has as its system Huh-7 liver cancer cell line. As to conditions: value from literature, read-out: IC50 (positive control); cited from earlier work.
Where [27] appears, read: Severe acute respiratory syndrome coronavirus 2, SARS-CoV-2 in Vero cells, 24 hours after infection, read-out: IC50.
[28] abbreviates: SARS-CoV-2 in Vero cells, 24 hours after infection, read-out: IC50.

Values joined by “and” are separate entries in the source; they are usually repeats but may differ in a detail not shown here. Equal entries are not always repeated. Where two headings read alike, the source gives them in different places.

`CCN(CC)CCCC(C)Nc1ccnc2cc(Cl)ccc12` (stereo not shown) [Chloroquine] showed a CC50 in data set [1] above 150 µM. The IC50 in [2] (setting [27]) was 7.47 µM.

With `N.N.[Cl][Pt][Cl]` [Cisplatin, reference compound], the results for the half-maximal inhibitory concentration (IC50) in data set [3] and in data set [4] were at least 25 µM and 12.3 µM, respectively.

As for `CC(=O)O[C@@]12CO[C@@H]1C[C@H](O)[C@@]1(C)C(=O)[C@H](O)C3=C(C)[C@@H](OC(=O)[C@H](O)[C@@H](NC(=O)OC(C)(C)C)c4ccccc4)C[C@@](O)([C@@H](OC(=O)c4ccccc4)[C@H]21)C3(C)C` [Docetaxel, reference compound], the IC50 in data set [5] is 0.635 µM; in data set [6] (Homo sapiens) it was 11.4 µM; in [7] (Homo sapiens) it was at least 25 µM; in [8] (Homo sapiens), 24.2 µM; in data set [9] (Homo sapiens), at least 25 µM; in data set [3] (Homo sapiens), at least 25 µM. Further, the IC50 in data set [4] (Homo sapiens) was at least 25 µM; in data set [10] it was 0.763 µM.

In data set [11], `CN(C)C(=O)COC(=O)Cc1ccc(OC(=O)c2ccc(NC(=N)N)cc2)cc1.O=C(Nc1ccc([N+](=O)[O-])cc1Cl)c1cc(Cl)ccc1O` [Example 1] displayed a CC50 above 50 µM. Moreover, the IC50 is 5.69 µM in [6]; 7.46 µM in data set [7]; 0.0993 µM in data set [12] (PANC-1, 48 hours drug treatment); 0.976 µM in [13] (A-549, 48 hours drug treatment); 5.37 µM in data set [8]; 0.729 µM in [14] (MiaPaCa-2, 48 hours drug treatment). Also, the IC50 turned out to be 0.381 µM in [15] (H-1299, 48 hours drug treatment); 0.134 µM in [16] (Huh-7, 48 hours drug treatment); 1.27 µM in data set [9]; 0.126 µM in data set [17] (MDA-MB-231, 48 hours drug treatment); 1.75 µM in data set [3]; 0.0413 µM in data set [18] (Hep-3B, 48 hours drug treatment). The IC50 in data set [4] was 4.98 µM; in data set [19] (MCF-7, 48 hours drug treatment), 0.428 µM; in data set [2] (setting [28]) it was 0.16 µM. Also, the “IC50 fold lower than gemcitabine” value in [12] (PANC-1 cell line) is recorded as 432 fold; in [14] (MIAPACA-2 cell line) it was 127 fold. Moreover, the “IC50 fold lower than gefitinib” value in data set [13] (A-549 cells) is recorded as 13 fold; in [15] (H-1299 cells), 45 fold. In addition, the “IC50 fold lower than Tamoxifen” value in data set [8] was 1.7 fold. In addition, the figures for the “IC50 fold lower than Sorafenib” value in data set [16] (Huh-7 cells) and in [18] (Hep-3B cells) were 44 fold and 297 fold, respectively. Further, the “IC50 fold lower than Herceptin” value in [9] amounted to 19 fold. For the same molecule, the “IC50 fold lower than docetaxel” value in data set [17] (MDA-MB-231 cells) amounted to 5 fold; in data set [19] (MCF-7 cells) it was 1.7 fold. Moreover, the “IC50 fold lower than Cisplatin” value in [3] was 14 fold. The “SI (selectivity index, CC50/IC50)” value in data set [2] (SARS-CoV-2 in Vero cells) was found to be 306.

For the molecule `CN(C)C(=O)COC(=O)Cc1ccc(OC(=O)c2ccc(NC(=N)N)cc2)cc1.O=C(Nc1ccc([N+](=O)[O-])cc1Cl)c1cc(Cl)ccc1O` [Example 17], the CC50 in [11] is above 50 µM. Further, the IC50 worked out at 5.82 µM in data set [6]; 7.48 µM in data set [7]; 6.29 µM in data set [8]; 1.5 µM in [9]; 2.25 µM in data set [3]; 4.55 µM in [4]. The 50% inhibitory concentration (IC50) in [2] (setting [28]) was 0.16 µM. The “IC50 fold lower than Tamoxifen” value in data set [8] is reported as 1.4 fold. In [20], the “Cumulative permeation amount of drug” value stood at 2.03 μg/ml/cm^2/h. Moreover, the “cumulative permeation amount of niclosamide, fold better than niclosamide single material” value in [20] is recorded as 1.72 fold. The “IC50 fold lower than Herceptin” value in [9] is listed as 16 fold. The “IC50 fold lower than Cisplatin” value in [3] was 11 fold. For the same molecule, the “pH 7 solubility” value in [21] is 55.2 μg/ml. The “SI (selectivity index, CC50/IC50)” value in [2] (SARS-CoV-2 in Vero cells) came to 313.

As to `CN(C)C(=O)COC(=O)Cc1ccc(OC(=O)c2ccc(NC(=N)N)cc2)cc1.O=C(Nc1ccc([N+](=O)[O-])cc1Cl)c1cc(Cl)ccc1O` [Example 21], the “Cumulative permeation amount J” value in data set [22] (camostat, donor pH 5.0 FeSSIF 37° C., acceptor ethyl alcohol:pH 7.4 PBS (1:9)) is 876.29 μg/ml/cm^2/h and 876.26 μg/ml/cm^2/h. Also, in data set [22] (cocrystal vs camostat single material), the “cumulative permeation amount of camostat, fold better than camostat single material” value came to 1.56 fold.

Turning to `Nc1ccn([C@@H]2O[C@H](CO)[C@@H](O)C2(F)F)c(=O)n1` [Gemcitabine], the IC50 in data set [23] was 92.7 µM; in data set [24] it was 42.9 µM.

With `Cc1cccc(C)c1OCC(=O)N[C@@H](Cc1ccccc1)[C@@H](O)C[C@H](Cc1ccccc1)NC(=O)[C@H](C(C)C)N1CCCNC1=O` [Lopinavir], in data set [1], the CC50 was above 50 µM. Further, in data set [2] (SARS-CoV-2 in Vero cells), the “IC50 fold higher than the IC50 of the cocrystal” value was “about 64.38 fold” and the “SI (selectivity index, CC50/IC50)” value turned out to be 4.85. Also, in data set [2] (setting [27]), the IC50 came to 10.3 µM.

For the molecule `O=C(Nc1ccc([N+](=O)[O-])cc1Cl)c1cc(Cl)ccc1O` [Niclosamide], the “Cumulative permeation amount of drug” value in [20] (4 mg/ml) is 1.18 μg/ml/cm^2/h. The figures for the “pH 7 solubility” value in data set [21] and in data set [21] (1 h) were “hardly detected” and below 0.3 μg/ml, respectively.

Consider `CC(=O)O[C@H]1C(=O)[C@@]2(C)[C@H]([C@H](OC(=O)c3ccccc3)[C@]3(O)C[C@H](OC(=O)[C@H](O)[C@@H](NC(=O)c4ccccc4)c4ccccc4)C(C)=C1C3(C)C)[C@]1(OC(C)=O)CO[C@@H]1C[C@@H]2O` [Paclitaxel, reference compound], for which 13.7 µM corresponded to half-maximal inhibition in [6] (Homo sapiens) (IC50).

The molecule `CCC(CC)COC(=O)[C@H](C)N[P@](=O)(OC[C@H]1O[C@@](C#N)(c2ccc3c(N)ncnn23)[C@H](O)[C@@H]1O)Oc1ccccc1` [Remdesivir] displayed a CC50 in [1] above 50 µM. Besides, in data set [2] (SARS-CoV-2 in Vero cells), the “IC50 fold higher than the IC50 of the cocrystal” value is reported as “about 21.75 fold” and the “SI (selectivity index, CC50/IC50)” value worked out at 14.35. For the same molecule, the IC50 in data set [2] (Severe acute respiratory syndrome coronavirus 2, Vero, 24 h) was determined as 3.48 µM.

As for `CNC(=O)c1cc(Oc2ccc(NC(=O)Nc3ccc(Cl)c(C(F)(F)F)c3)cc2)ccn1` [Sorafenib], the IC50 in data set [25] was 12.3 µM; in [26], 6 µM.
